How the values were obtained:
Assay in all cases: cells
Conditions in all cases: Homo sapiens
A101D = format: functional, cell-based;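 note: growth inhibition of the cell line, measured with a viability assay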
Description: SANGER: Inhibition of human A101D cell growth in a cell viability assay.

IST-SL1 = format: functional, cell-based;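 note: growth inhibition of human IST-SL1 cells, read out with a cell viability assay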
Description: SANGER: Inhibition of human IST-SL1 cell growth in a cell viability assay.

BB30-HNC = format: functional, cell-based;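 note: growth inhibition of the cultured cell line, read out by a cell viability assay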
Description: SANGER: Inhibition of human BB30-HNC cell growth in a cell viability assay.

KMOE-2 = format: functional, cell-based;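 note: growth inhibition of human KMOE-2 cells, read out with a cell viability assay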
Description: SANGER: Inhibition of human KMOE-2 cell growth in a cell viability assay.

CCRF-CEM = format: functional, cell-based;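 note: inhibition of CCRF-CEM cell growth, measured by a cell viability assay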
Description: SANGER: Inhibition of human CCRF-CEM cell growth in a cell viability assay.

P30-OHK = format: functional, cell-based;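 note: growth inhibition of the P30-OHK cell line, read out with a cell viability assay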
Description: SANGER: Inhibition of human P30-OHK cell growth in a cell viability assay.

NCI-H446 = format: functional, cell-based;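 note: growth inhibition of NCI-H446 cells determined by a cell viability assay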
Description: SANGER: Inhibition of human NCI-H446 cell growth in a cell viability assay.

NCI-H1155 = format: functional, cell-based;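 note: cell growth inhibition measured by a viability assay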
Description: SANGER: Inhibition of human NCI-H1155 cell growth in a cell viability assay.

LB771-HNC = format: functional, cell-based;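 note: growth inhibition of LB771-HNC human cells, read out with a cell viability assay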
Description: SANGER: Inhibition of human LB771-HNC cell growth in a cell viability assay.

HT-144 = format: functional, cell-based
Description: SANGER: Inhibition of human HT-144 cell growth in a cell viability assay.

NCI-H69 = format: functional, cell-based;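 note: growth inhibition of the cell line, read out with a cell viability assay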
Description: SANGER: Inhibition of human NCI-H69 cell growth in a cell viability assay.

C8166 = format: functional, cell-based;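 note: growth inhibition of human C8166 cells measured by a cell viability assay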
Description: SANGER: Inhibition of human C8166 cell growth in a cell viability assay.

COLO-800 = format: functional, cell-based;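 note: growth inhibition of COLO-800 cells, read out with a cell viability assay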
Description: SANGER: Inhibition of human COLO-800 cell growth in a cell viability assay.

NCI-H209 = format: functional, cell-based;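 note: growth inhibition of human NCI-H209 cells, measured by a cell viability assay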
Description: SANGER: Inhibition of human NCI-H209 cell growth in a cell viability assay.

SHP77 = format: functional, cell-based, SHP-77;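 note: growth inhibition of human SHP-77 cells measured by a cell viability assay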
Description: SANGER: Inhibition of human SHP-77 cell growth in a cell viability assay.

JAR = format: functional, cell-based;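 note: growth inhibition of human JAR cells determined with a cell viability assay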
Description: SANGER: Inhibition of human JAR cell growth in a cell viability assay.

MZ7-mel = format: functional, cell-based;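 note: growth inhibition of human MZ7-mel cells, measured by a cell viability assay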
Description: SANGER: Inhibition of human MZ7-mel cell growth in a cell viability assay.

EW-18 = format: functional, cell-based;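 note: growth inhibition of EW-18 cells, read out by a cell viability assay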
Description: SANGER: Inhibition of human EW-18 cell growth in a cell viability assay.

TE-6 = format: functional, cell-based;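 note: growth inhibition of TE-6 cells, read out with a cell viability assay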
Description: SANGER: Inhibition of human TE-6 cell growth in a cell viability assay.

ES3 = format: functional, cell-based;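 note: growth inhibition of ES3 cells, read out with a cell viability assay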
Description: SANGER: Inhibition of human ES3 cell growth in a cell viability assay.

IST-MEL1 = format: functional, cell-based;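 note: growth inhibition of the cell line, read out with a cell viability assay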
Description: SANGER: Inhibition of human IST-MEL1 cell growth in a cell viability assay.

A704 = format: functional, cell-based;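 note: growth inhibition of human A704 cells, read out with a cell viability assay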
Description: SANGER: Inhibition of human A704 cell growth in a cell viability assay.

ES1 = format: functional, cell-based;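 note: growth inhibition of ES1 cells, read out with a cell viability assay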
Description: SANGER: Inhibition of human ES1 cell growth in a cell viability assay.

KM12 = format: functional, cell-based;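 note: KM12 cell growth inhibition, read out with a cell viability assay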
Description: SANGER: Inhibition of human KM12 cell growth in a cell viability assay.

LB831-BLC = format: functional, cell-based;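 note: growth inhibition of LB831-BLC cells, read out with a cell viability assay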
Description: SANGER: Inhibition of human LB831-BLC cell growth in a cell viability assay.

EW-3 = format: functional, cell-based;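 note: cell viability assay read-out, IC50 reflects inhibition of growth of the EW-3 cells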
Description: SANGER: Inhibition of human EW-3 cell growth in a cell viability assay.

IA-LM = format: functional, cell-based;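 note: cell viability assay measuring growth inhibition of human IA-LM cells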
Description: SANGER: Inhibition of human IA-LM cell growth in a cell viability assay.

SBC-1 = format: functional, cell-based;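 note: cell viability assay measuring growth inhibition of the SBC-1 cell line, IC50 being the concentration that halves growth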
Description: SANGER: Inhibition of human SBC-1 cell growth in a cell viability assay.

Calu-6 = format: functional, cell-based;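 note: growth of human Calu-6 cells, read out by a cell viability assay, IC50 marking inhibition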
Description: SANGER: Inhibition of human Calu-6 cell growth in a cell viability assay.

RXF 393 = format: functional, cell-based;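 note: growth inhibition of human RXF 393 cells, read out with a cell viability assay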
Description: SANGER: Inhibition of human RXF393 cell growth in a cell viability assay.

EW-1 = format: functional, cell-based
Description: SANGER: Inhibition of human EW-1 cell growth in a cell viability assay.

EOL1 = format: functional, cell-based;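 note: growth inhibition of EoL-1 cells, read out by a cell viability assay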
Description: SANGER: Inhibition of human EoL-1-cell cell growth in a cell viability assay.

GB-1 = format: functional, cell-based;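 note: growth of GB-1 cells judged by a viability assay, IC50 marks the concentration inhibiting growth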
Description: SANGER: Inhibition of human GB-1 cell growth in a cell viability assay.

KGN = format: functional, cell-based;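 note: growth inhibition of KGN cells, read out with a cell viability assay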
Description: SANGER: Inhibition of human KGN cell growth in a cell viability assay.

DMS-114 = format: functional, cell-based
SNU-C2B = format: functional, cell-based;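 note: cell viability readout used to measure compound-driven suppression of SNU-C2B cell proliferation, IC50 marking half-maximal growth inhibition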
Description: SANGER: Inhibition of human SNU-C2B cell growth in a cell viability assay.

HuTu80 = format: functional, cell-based, HUTU-80;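 note: growth inhibition of HuTu80 human cells, determined with a cell viability readout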
Description: SANGER: Inhibition of human HUTU-80 cell growth in a cell viability assay.

GOTO = format: functional, cell-based;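 note: growth inhibition of GOTO cells, read out by a cell viability assay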
Description: SANGER: Inhibition of human GOTO cell growth in a cell viability assay.

OCI-AML2 = format: functional, cell-based;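 note: growth inhibition of OCI-AML2 cells, read out with a cell viability assay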
Description: SANGER: Inhibition of human OCI-AML2 cell growth in a cell viability assay.

SW872 = format: functional, cell-based;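 note: growth inhibition of SW872 cells, read out by a viability assay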
Description: SANGER: Inhibition of human SW872 cell growth in a cell viability assay.

OS-RC-2 = format: functional, cell-based;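 note: growth inhibition of human OS-RC-2 cells, measured by a cell viability assay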
Description: SANGER: Inhibition of human OS-RC-2 cell growth in a cell viability assay.

BE-13 = format: functional, cell-based;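 note: growth inhibition of human BE-13 cells, measured with a cell viability assay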
Description: SANGER: Inhibition of human BE-13 cell growth in a cell viability assay.

COR-L88 = format: functional, cell-based;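 note: growth inhibition of COR-L88 cells, read out with a cell viability assay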
Description: SANGER: Inhibition of human COR-L88 cell growth in a cell viability assay.

LB2241-RCC = format: functional, cell-based;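 note: cell viability assay measuring how strongly the cultured human renal carcinoma line is prevented from growing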
Description: SANGER: Inhibition of human LB2241-RCC cell growth in a cell viability assay.

ES8 = format: functional, cell-based;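 note: growth inhibition of human ES8 cells, read out with a cell viability assay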
Description: SANGER: Inhibition of human ES8 cell growth in a cell viability assay.

QIMR-WIL = format: functional, cell-based;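 note: growth inhibition of QIMR-WIL cells, read out with a cell viability assay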
Description: SANGER: Inhibition of human QIMR-WIL cell growth in a cell viability assay.

A3-KAW = format: functional, cell-based;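 note: growth inhibition of human A3-KAW cells, read out with a cell viability assay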
Description: SANGER: Inhibition of human A3-KAW cell growth in a cell viability assay.

SK-PN-DW = format: functional, cell-based;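 note: growth inhibition measured with a viability assay on these cells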
Description: SANGER: Inhibition of human SK-PN-DW cell growth in a cell viability assay.

SK-N-FI = format: functional, cell-based;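 note: cell viability assay measuring growth inhibition of human SK-N-FI cells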
Description: SANGER: Inhibition of human SK-N-FI cell growth in a cell viability assay.

ACN = format: functional, cell-based;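 note: growth inhibition of the human ACN cell line, read out via cell viability testing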
Description: SANGER: Inhibition of human ACN cell growth in a cell viability assay.

LS-123 = format: functional, cell-based
Description: SANGER: Inhibition of human LS-123 cell growth in a cell viability assay.

COLO-668 = format: functional, cell-based
Description: SANGER: Inhibition of human COLO-668 cell growth in a cell viability assay.

NB6 = format: functional, cell-based;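 note: growth inhibition of NB6 cells, read out by a cell viability assay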
Description: SANGER: Inhibition of human NB6 cell growth in a cell viability assay.

EW-24 = format: functional, cell-based
Description: SANGER: Inhibition of human EW-24 cell growth in a cell viability assay.

SJSA-1 = format: functional, cell-based
Description: SANGER: Inhibition of human SJSA-1 cell growth in a cell viability assay.

GCIY = format: functional, cell-based
Description: SANGER: Inhibition of human GCIY cell growth in a cell viability assay.

SK-MEL-2 = format: functional, cell-based
Description: SANGER: Inhibition of human SK-MEL-2 cell growth in a cell viability assay.

LNCaP-Clone-FGC = format: functional, cell-based
Description: SANGER: Inhibition of human LNCaP-Clone-FGC cell growth in a cell viability assay.

KY821 = format: functional, cell-based
Description: SANGER: Inhibition of human KY821 cell growth in a cell viability assay.

RKO = format: functional, cell-based
Description: SANGER: Inhibition of human RKO cell growth in a cell viability assay.

LS-513 = format: functional, cell-based
Description: SANGER: Inhibition of human LS-513 cell growth in a cell viability assay.

TE-10 = format: functional, cell-based
Description: SANGER: Inhibition of human TE-10 cell growth in a cell viability assay.

SNU-5 = format: functional, cell-based
Description: SANGER: Inhibition of human NCI-SNU-5 cell growth in a cell viability assay.

K5 = format: functional, cell-based
Description: SANGER: Inhibition of human K5 cell growth in a cell viability assay.

A388 = format: functional, cell-based
Description: SANGER: Inhibition of human A388 cell growth in a cell viability assay.

HCE-4 = format: functional, cell-based
Description: SANGER: Inhibition of human HCE-4 cell growth in a cell viability assay.

Measured: IC50

Cn1cc(/C=C2\C(=O)Nc3cccnc32)c2ccccc21
1940 nM: KM12
972 nM: JAR
865 nM: ACN
> 2000 nM: all other assays above

N#C/C(=C1/Nc2ccccc2S1)c1ccnc(NCCc2cccnc2)n1
5690 nM: LB831-BLC
2220 nM: A101D
5480 nM: GCIY
2730 nM: IA-LM
4650 nM: OCI-AML2
5850 nM: KGN
2230 nM: TE-10
4470 nM: C8166 | COLO-668
2310 nM: RKO
2490 nM: EOL1
4750 nM: P30-OHK
7850 nM: SNU-C2B
1320 nM: SW872
> 8000 nM: all other assays above

O=c1[nH]c2ccccc2n1C1CCN(Cc2ccc(-c3nc4cc5[nH]cnc5cc4nc3-c3ccccc3)cc2)CC1
> 2560 nM: all assays above

Fc1cc(-c2cc[nH]/c(=N/c3ccc(-n4cnc(N5CCOCC5)n4)cc3)n2)cc(N2CCOCC2)c1
637 nM: SNU-C2B
294 nM: A3-KAW
809 nM: GOTO
364 nM: CCRF-CEM
78.6 nM: ACN
420 nM: LB831-BLC
117 nM: RKO
825 nM: SHP77
2900 nM: MZ7-mel
501 nM: EOL1
376 nM: COLO-668
546 nM: EW-1
498 nM: OCI-AML2
299 nM: P30-OHK
147 nM: HT-144
631 nM: SK-MEL-2
912 nM: NB6
857 nM: EW-18
135 nM: ES8
1100 nM: BE-13
129 nM: GCIY
1180 nM: NCI-H69
212 nM: KM12
328 nM: GB-1
305 nM: TE-10
1250 nM: LS-123
733 nM: LB2241-RCC
390 nM: OS-RC-2
1990 nM: COLO-800
371 nM: IA-LM
1070 nM: KMOE-2
894 nM: IST-MEL1
669 nM: SK-PN-DW
227 nM: KGN
1140 nM: NCI-H446 | LS-513
539 nM: SW872
775 nM: IST-SL1
77.7 nM: LB771-HNC
1260 nM: NCI-H209
4230 nM: EW-3 | HuTu80
245 nM: A101D
1940 nM: A388
830 nM: K5
122 nM: BB30-HNC
251 nM: SJSA-1
1090 nM: ES3
903 nM: LNCaP-Clone-FGC | HCE-4
518 nM: Calu-6
66.9 nM: RXF 393
343 nM: QIMR-WIL
2630 nM: NCI-H1155
2000 nM: TE-6
441 nM: A704
685 nM: ES1
2570 nM: COR-L88
3300 nM: JAR
445 nM: C8166
> 5120 nM: all other assays above

From ChEMBL document CHEMBL1201861, “Genomics of Drug Sensitity in Cancer screening data, Wellcome Trust Sanger Institute”
